From patent US12662498B2 (priority 2017, dated 2026)

Assay: ICH stability study of psilocybin batches (appearance, water content, purity, assay)
[1] = T = 1 month, 2-8° C., listed as 170231
[2] = T = 1 month, 25° C./60% RH, listed as 170231
[3] = T = 1 month, 40° C./75% RH, listed as 170231
[4] = T = 3 months, 2-8° C., listed as 170231
[5] = T = 3 months, 25° C./60% RH, listed as 170231
[6] = T = 3 months, 40° C./75% RH, listed as 170231

**Q.** What does the source list for `CN(C)CCc1c[nH]c2cccc(OP(=O)(O)O)c12` [Batch 170231]?
**A.** Assay by HPLC (on a dry basis) (T = 0): 98.65% ^w/w % w/w; Impurities LT 0.05% (T = 0): 0.22%; Impurities by HPLC: RRT0.69 (T = 0): LT 0.05%; Impurities by HPLC: RRT 1.49 (T = 0): 0.06%; Impurities by HPLC: RRT 1.62 (Psilocin) (T = 0): 0.39%; Impurities by HPLC: RRT 1.70 (T = 0): 0.05%; Impurity at RRT 1.89 (T = 0): LT 0.05%; Impurity at RRT 2.45 (T = 0): LT 0.05%; Chemical Purity By HPLC (T = 0, listed as 170231): 99.28%; Total Impurities (T = 0, listed as 170231): 0.72%; Water content by loss on drying (T = 0, listed as 170231): 0.32% ^w/w % w/w; Assay by HPLC (on a dry basis) (T = 1 month, 2-8° C.): 98.76% ^w/w % w/w; Impurities LT 0.05% (T = 1 month, 2-8° C.): 0.39%; Impurities by HPLC: RRT 1.49 (T = 1 month, 2-8° C.): 0.05%; Impurities by HPLC: RRT 1.62 (Psilocin) (T = 1 month, 2-8° C.): 0.36%; Impurities by HPLC: RRT 1.70 (T = 1 month, 2-8° C.): LT 0.05%; Impurity at RRT 1.89 (T = 1 month, 2-8° C.): LT 0.05%; Impurity at RRT 2.45 (T = 1 month, 2-8° C.): LT 0.05%; Chemical Purity By HPLC [1]: 99.20%; Total Impurities [1]: 0.80%; Water content by loss on drying [1]: 0.27% ^w/w % w/w; Assay by HPLC (on a dry basis) (T = 1 month, 25° C./60% RH): 97.98% ^w/w % w/w; Impurities LT 0.05% (T = 1 month, 25° C./60% RH): 0.42%; Impurities by HPLC: RRT 1.49 (T = 1 month, 25° C./60% RH): 0.05%; Impurities by HPLC: RRT 1.62 (Psilocin) (T = 1 month, 25° C./60% RH): 0.37%; Impurities by HPLC: RRT 1.70 (T = 1 month, 25° C./60% RH): LT 0.05%; Impurity at RRT 1.89 (T = 1 month, 25° C./60% RH): LT 0.05%; Impurity at RRT 2.45 (T = 1 month, 25° C./60% RH): LT 0.05%; Chemical Purity By HPLC [2]: 99.16%; Total Impurities [2]: 0.84%; Water content by loss on drying [2]: 0.17% ^w/w % w/w; Assay by HPLC (on a dry basis) (T = 1 month, 40° C./75% RH): 98.52% ^w/w % w/w; Impurities LT 0.05% (T = 1 month, 40° C./75% RH): 0.41%; Impurities by HPLC: RRT 1.49 (T = 1 month, 40° C./75% RH): 0.06%; Impurities by HPLC: RRT 1.62 (Psilocin) (T = 1 month, 40° C./75% RH): 0.36%; Impurities by HPLC: RRT 1.70 (T = 1 month, 40° C./75% RH): LT 0.05%; Impurity at RRT 1.89 (T = 1 month, 40° C./75% RH): LT 0.05%; Impurity at RRT 2.45 (T = 1 month, 40° C./75% RH): LT 0.05%; Chemical Purity By HPLC [3]: 99.17%; Total Impurities [3]: 0.83%; Water content by loss on drying [3]: 0.19% ^w/w % w/w; Assay by HPLC (on a dry basis) (T = 3 months, 2-8° C.): 98.45% ^w/w % w/w; Impurities LT 0.05% (T = 3 months, 2-8° C.): 0.22%; Impurities by HPLC: RRT0.69 (T = 3 months, 2-8° C.): 0.05%; Impurities by HPLC: RRT 1.49 (T = 3 months, 2-8° C.): 0.05%; Impurities by HPLC: RRT 1.62 (Psilocin) (T = 3 months, 2-8° C.): 0.37%; Impurities by HPLC: RRT 1.70 (T = 3 months, 2-8° C.): LT 0.05%; Impurity at RRT 1.89 (T = 3 months, 2-8° C.): LT 0.05%; Impurity at RRT 2.45 (T = 3 months, 2-8° C.): LT 0.05%; Chemical Purity By HPLC [4]: 99.30%; Total Impurities [4]: 0.70%; Water content by loss on drying [4]: 0.17% ^w/w % w/w; Assay by HPLC (on a dry basis) (T = 3 months, 25° C./60% RH): 99.46% ^w/w % w/w; Impurities LT 0.05% (T = 3 months, 25° C./60% RH): 0.27%; Impurities by HPLC: RRT0.69 (T = 3 months, 25° C./60% RH): LT 0.05%; Impurities by HPLC: RRT 1.49 (T = 3 months, 25° C./60% RH): 0.05%; Impurities by HPLC: RRT 1.62 (Psilocin) (T = 3 months, 25° C./60% RH): 0.36%; Impurities by HPLC: RRT 1.70 (T = 3 months, 25° C./60% RH): LT 0.05%; Impurity at RRT 1.89 (T = 3 months, 25° C./60% RH): LT 0.05%; Impurity at RRT 2.45 (T = 3 months, 25° C./60% RH): LT 0.05%; Chemical Purity By HPLC [5]: 99.31%; Total Impurities [5]: 0.69%; Water content by loss on drying [5]: 0.01% ^w/w % w/w; Assay by HPLC (on a dry basis) (T = 3 months, 40° C./75% RH): 98.64% ^w/w % w/w; Impurities LT 0.05% (T = 3 months, 40° C./75% RH): 0.34%; Impurities by HPLC: RRT0.69 (T = 3 months, 40° C./75% RH): LT 0.05%; Impurities by HPLC: RRT 1.49 (T = 3 months, 40° C./75% RH): 0.06%; Impurities by HPLC: RRT 1.62 (Psilocin) (T = 3 months, 40° C./75% RH): 0.39%; Impurities by HPLC: RRT 1.70 (T = 3 months, 40° C./75% RH): LT 0.05%; Impurity at RRT 1.89 (T = 3 months, 40° C./75% RH): LT 0.05%; Impurity at RRT 2.45 (T = 3 months, 40° C./75% RH): LT 0.05%; Chemical Purity By HPLC [6]: 99.17%; Total Impurities [6]: 0.79%; Water content by loss on drying [6]: 0.19% ^w/w % w/w; Appearance (T = 6 months, 2-8° C.): An off white solid.; Assay by HPLC (on a dry basis) (T = 6 months, 2-8° C.): 97.97% ^w/w % w/w; Chemical Purity By HPLC (T = 6 months, 2-8° C.): 99.20%; Impurities LT 0.05% (T = 6 months, 2-8° C.): 0.32%; Impurities by HPLC: RRT0.69 (T = 6 months, 2-8° C.): 0.06%; Impurities by HPLC: RRT 1.49 (T = 6 months, 2-8° C.): LT 0.05%
